How the values were obtained:
receptor EGFP-NK2R [1] = biological target: T1, receptor EGFP-NK2R (Homo sapiens, UniProt P21452); experiment: Calcium response caused by NKA 4-10 TR7 in HEK 293 cells expressing EGFP-NK2R (indo-1); format: cell-based; conditions: 805 20 μM; NKA 4-10 TR7 106, 50.3, 26.5 and 10.6 nM
T1 sequence (P21452 1-398): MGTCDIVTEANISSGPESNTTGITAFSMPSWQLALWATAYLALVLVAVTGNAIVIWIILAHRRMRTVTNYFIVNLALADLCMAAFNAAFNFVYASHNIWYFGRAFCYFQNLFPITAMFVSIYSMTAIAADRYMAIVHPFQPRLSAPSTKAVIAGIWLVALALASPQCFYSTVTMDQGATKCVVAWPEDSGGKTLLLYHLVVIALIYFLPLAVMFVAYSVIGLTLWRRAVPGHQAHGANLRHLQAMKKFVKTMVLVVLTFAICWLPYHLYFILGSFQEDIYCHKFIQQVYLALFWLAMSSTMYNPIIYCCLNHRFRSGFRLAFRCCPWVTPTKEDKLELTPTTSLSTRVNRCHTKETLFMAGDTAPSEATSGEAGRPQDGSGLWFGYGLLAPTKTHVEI
Description: The cells are put into suspension at a rate of 500,000 cells/ml in Hepes buffer and arranged in a spectrofluorimeter cuvette. The excitation wavelength is fixed at 355 nm and the emission is recorded at […].

receptor EGFP-NK2R [2] = biological target: T2, receptor EGFP-NK2R (UniProt P16610); experiment: Dissociation of NKA4-10 TR7 from EGFP-NK2R by fluorescence energy transfer; format: binding; design: % al (max): maximum value observed for the increase in amplitude of the rapid dissociation rate; ns = n; other: 20 nM of NK; % al (at 10 μM); other: compou; fused on or other part: EGFP fused to the receptor as FRET donor
T2 sequence (P16610 1-390): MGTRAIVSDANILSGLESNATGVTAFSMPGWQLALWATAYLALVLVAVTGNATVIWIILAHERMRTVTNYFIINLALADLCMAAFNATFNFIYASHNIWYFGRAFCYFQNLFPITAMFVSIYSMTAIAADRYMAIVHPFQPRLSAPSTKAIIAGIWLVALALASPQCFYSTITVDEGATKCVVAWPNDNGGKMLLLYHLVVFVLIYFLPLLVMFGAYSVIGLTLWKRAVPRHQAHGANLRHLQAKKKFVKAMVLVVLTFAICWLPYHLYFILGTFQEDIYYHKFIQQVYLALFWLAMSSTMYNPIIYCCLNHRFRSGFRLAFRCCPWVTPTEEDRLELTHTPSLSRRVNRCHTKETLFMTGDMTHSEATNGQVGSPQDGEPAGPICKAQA
Description: The x-axis represents time in seconds and the y-axis represents fluorescence.
In the presence of 10 μM of 805, an acceleration of the dissociation is observed characterized by a modification of the amplitudes of the rapid (88%) and slow (12%) dissociation stages.

[3] = biological target: T3, wild-type human receptor NK1 (Homo sapiens, UniProt P25103); experiment: Calcium response caused by substance P in HEK 293 cells expressing NK1 receptor; format: cell-based; conditions: 805 20 μM; substance P 0.1 or 10 nM
T3 construct: expressed in transfected cells; host or cells: HEK 293
Description: In FIGS. 12A and 12B, a suspension (1×10^6 cells/ml) of HEK 293 cells expressing the wild-type human NK1 receptor, and charged with indo-1 (3 μM) is stimulated by 0.1 nM (FIG. 12A) or 10 nM (FIG. 12B) of substance P(SP) in the presence (black circles) and in the absence (white circles) of 805 molecules (20 μM).
(§1) The cells are put into suspension at a rate of 1,000,000 cells/ml in Hepes buffer (op. cit.) and arranged in a spectrofluorimeter cuvette. The excitation wavelength is fixed at 338 nm and the emission is recorded at 400 nm. The responses traced are the signals recorded at 400 nm.

[4] = biological target: T4, wild-type human receptor NK2 (Homo sapiens, UniProt P21452); experiment: Calcium response caused by neurokinin A in HEK 293 cells expressing NK2 receptor; format: cell-based; conditions: 805 20 μM; neurokinin A 10 or 100 nM
T4 construct: expressed in transfected cells; host or cells: HEK 293
T4 sequence (P21452 1-398): T1 sequence (P21452 1-398)
Description: as §1

receptor EGFP-NK2R [5] = biological target: T2, receptor EGFP-NK2R; experiment: Dissociation kinetics of NKA-Bo bound to EGFP-NK2R by fluorescence energy transfer; format: binding; design: % al (max): maximum value observed for the increase in amplitude of the rapid dissociation rate; ns = n; other: 20 nM of NK; % al (at 10 μM); other: compou; fused on or other part: EGFP fused to the receptor as FRET donor; conditions: for λ1/λ2 amplitudes (rapid/slow) of dissociation of NKA-Bo: 30/70 without 805
Description: Dissociation (FIG. 4B): HEK 293 cells expressing the receptor EGFP-NK2R are put into suspension at a concentration of 1,000,000 cells/ml in Hepes physiological buffer (in mM: 137.5 NaCl; 1.25 MgCl2; 1.25 CaCl2; 6 KCl; 5.6 glucose; 10 Hepes; 0.4 NaH2PO4; 1% BSA (w/v); pH 7.4) and arranged in a 1 ml cuvette equipped with a magnetic stirrer on the cuvette holder of a SPEX fluorolog 3 spectrofluorimeter.
(§2) The amplitude of each relaxation is then given by the adjustment of the experimental traces.

receptor EGFP-NK2R [6] = biological target: T2, receptor EGFP-NK2R; experiment: Reversion of the binding of NKA-Bo to EGFP-NK2R by fluorescence energy transfer; design: % al (max): maximum value observed for the increase in amplitude of the rapid dissociation rate; ns = n; other: 20 nM of NK; % al (at 10 μM); other: compou; fused on or other part: EGFP fused to the receptor as FRET donor
From the text: as §2

T3 sequence (P25103 whole entry): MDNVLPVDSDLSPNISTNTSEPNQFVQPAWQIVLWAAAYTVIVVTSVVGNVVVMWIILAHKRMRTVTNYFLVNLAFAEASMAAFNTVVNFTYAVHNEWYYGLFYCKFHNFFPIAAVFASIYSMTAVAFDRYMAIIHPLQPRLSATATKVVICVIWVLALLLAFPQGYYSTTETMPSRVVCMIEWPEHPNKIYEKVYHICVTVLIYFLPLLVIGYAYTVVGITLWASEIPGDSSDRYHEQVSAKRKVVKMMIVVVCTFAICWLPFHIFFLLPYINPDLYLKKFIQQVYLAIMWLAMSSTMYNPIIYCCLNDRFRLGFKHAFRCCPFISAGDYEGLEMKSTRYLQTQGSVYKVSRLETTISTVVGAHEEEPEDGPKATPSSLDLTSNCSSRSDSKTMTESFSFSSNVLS

N#CCN(Cc1ccccc1)Cc1ccc2ccccc2c1 [compound 805, [benzyl(2-naphthylmethyl)amino]acetonitrile]
effect on the calcium response caused by NKA 4-10 TR7 (receptor EGFP-NK2R [1]): increases the amplitude of the response
amplitude of the slow dissociation of NKA4-10 TR7 (receptor EGFP-NK2R [2]; 10 μM of 805, 10° C., 42% without 805): 12%
amplitude of the rapid dissociation of NKA4-10 TR7 (receptor EGFP-NK2R [2]; 805 at 100 μM, approximately 40% in the absence of 805): up to 90%
EC50 (receptor EGFP-NK2R [2]; read-out: concentration which causes a 50% increase in the amplitude of the rapid dissociation of NKA4-10 TR7 (apparent affinity), 10° C.): ~20 µM
effect on the calcium response caused by substance P [3]: increases the amplitude of the response
effect on the calcium response caused by neurokinin A [4]: increases the amplitude of the response
λ1/λ2 amplitudes (rapid/slow) of dissociation of NKA-Bo (receptor EGFP-NK2R [5]; 1 μM 805): 35/65
λ1/λ2 amplitudes (rapid/slow) of dissociation of NKA-Bo (receptor EGFP-NK2R [5]; 50 μM 805): 80/20
% al (max): maximum value observed for the increase in amplitude of the rapid dissociation rate (receptor EGFP-NK2R [5]; Table 1, ns = not significant): 80%
% al (at 10 μM) (receptor EGFP-NK2R [5]; compound 10 μM, T = 22 ± 1 is amplitude of rapid dissociation in the absence of effector): 29 (10 μM) %
EC50 (receptor EGFP-NK2R [5]; read-out: EC50 (μM): concentration of compound causing a 50% increase (relative to the maximum value) in the percentage of the amplitude of the rapid dissociation rate, Table 1, dissociation of NKA-Bo from EGFP-NK2R, ns = not significant): 3 to 8 µM
% bond reversion (at 10 μM) (receptor EGFP-NK2R [6]; compound 10 μM): 1 (10 μM) %
IC50 (receptor EGFP-NK2R [6]; read-out: IC50 (μM): concentration of compound for which a 50% reduction is observed in the binding of NKA-Bo, 20 nM of NKA-Bo, EGFP-NK2R receptor): > 500 µM

— patent US20060194259A1, “Method for isolating an allosteric effector of a receptor” (priority 2002, published 2006)
